Measured values: PMC9754640, “Z-REX uncovers a bifurcation in function of Keap1 paralogs” (eLife, 2022)

Tests used:
[1] = biological target: T1, hKeap1 (Homo sapiens, UniProt Q14145); assay: Z-REX in zebrafish embryos, biotin-azide Click, streptavidin pulldown, western blot; conditions: covalent; alkyne-labelled compound released from Ht-PreDE (6 uM) in live embryos; also labelled by bolus DE
T1 construct: gene KEAP1; full-length, His6-HaloTag-TEV fusion (2xHA C-terminal in fish); TEV-cleaved after lysis, about 70 kDa; expressed in HEK293T cells or zebrafish embryos
T1 sequence (Q14145 whole entry, the tested form may be a part): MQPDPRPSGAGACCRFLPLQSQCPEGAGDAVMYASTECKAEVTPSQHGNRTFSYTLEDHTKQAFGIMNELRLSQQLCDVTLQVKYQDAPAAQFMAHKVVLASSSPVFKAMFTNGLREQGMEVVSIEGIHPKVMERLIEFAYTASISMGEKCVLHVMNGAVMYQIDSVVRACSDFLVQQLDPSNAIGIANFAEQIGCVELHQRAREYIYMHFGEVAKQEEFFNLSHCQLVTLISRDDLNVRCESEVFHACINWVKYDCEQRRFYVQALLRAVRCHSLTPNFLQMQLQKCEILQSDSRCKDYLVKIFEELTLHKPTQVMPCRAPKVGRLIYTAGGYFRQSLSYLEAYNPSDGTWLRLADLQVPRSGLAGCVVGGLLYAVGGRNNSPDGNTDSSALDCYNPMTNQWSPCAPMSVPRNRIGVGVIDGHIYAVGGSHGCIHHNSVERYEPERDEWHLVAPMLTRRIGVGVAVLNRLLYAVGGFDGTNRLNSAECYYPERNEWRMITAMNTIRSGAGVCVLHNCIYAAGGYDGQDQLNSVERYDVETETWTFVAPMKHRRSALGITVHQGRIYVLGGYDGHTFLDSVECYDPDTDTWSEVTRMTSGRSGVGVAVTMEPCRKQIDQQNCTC

[2] = biological target: T1, hKeap1; assay: T-REX photouncaging in HEK293T, TEV cleavage, Cy5-azide Click in-gel fluorescence; assay type: cell-based; conditions: covalent; alkyne-labelled compound released from Ht-PreHNE bound to HaloTag (25 uM in methods), live cells
[3] = biological target: T2, zKeap1b (Danio rerio, UniProt A0A2R8Q1W5); assay: as above; assay type: cell-based; conditions: covalent; alkyne-labelled compound released from Ht-PreHNE bound to HaloTag (25 uM in methods), live cells
T2 construct: gene keap1b; full-length, myc-HaloTag-TEV-3xFlag N-terminal fusion, TEV-cleaved after lysis; HEK293T expression
T2 sequence (A0A2R8Q1W5 1-593 isoform A0A2R8Q1W5-3): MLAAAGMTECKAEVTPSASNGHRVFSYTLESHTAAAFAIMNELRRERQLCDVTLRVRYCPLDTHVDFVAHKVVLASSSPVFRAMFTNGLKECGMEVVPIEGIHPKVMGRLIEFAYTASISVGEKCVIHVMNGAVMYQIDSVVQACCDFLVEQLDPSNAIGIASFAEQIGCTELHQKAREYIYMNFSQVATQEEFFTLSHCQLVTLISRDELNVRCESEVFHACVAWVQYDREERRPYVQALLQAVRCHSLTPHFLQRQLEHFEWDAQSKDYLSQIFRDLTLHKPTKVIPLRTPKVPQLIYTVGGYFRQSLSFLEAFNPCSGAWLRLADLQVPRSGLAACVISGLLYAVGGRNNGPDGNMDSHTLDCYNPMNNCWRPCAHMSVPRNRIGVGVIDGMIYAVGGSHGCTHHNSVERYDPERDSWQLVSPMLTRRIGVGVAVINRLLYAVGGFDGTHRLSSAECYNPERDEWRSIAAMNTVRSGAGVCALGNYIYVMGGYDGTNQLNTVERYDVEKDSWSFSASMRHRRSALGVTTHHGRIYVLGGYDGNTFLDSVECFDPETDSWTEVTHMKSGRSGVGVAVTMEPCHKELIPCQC

[4] = biological target: T3, zKeap1a (Danio rerio, UniProt Q1ECZ2); assay: as above; assay type: cell-based; conditions: covalent; alkyne-labelled compound released from Ht-PreHNE bound to HaloTag (25 uM in methods), live cells
T3 construct: gene keap1a; full-length, myc-HaloTag-TEV-3xFlag N-terminal fusion, TEV-cleaved after lysis; HEK293T expression
T3 sequence (Q1ECZ2 1-601): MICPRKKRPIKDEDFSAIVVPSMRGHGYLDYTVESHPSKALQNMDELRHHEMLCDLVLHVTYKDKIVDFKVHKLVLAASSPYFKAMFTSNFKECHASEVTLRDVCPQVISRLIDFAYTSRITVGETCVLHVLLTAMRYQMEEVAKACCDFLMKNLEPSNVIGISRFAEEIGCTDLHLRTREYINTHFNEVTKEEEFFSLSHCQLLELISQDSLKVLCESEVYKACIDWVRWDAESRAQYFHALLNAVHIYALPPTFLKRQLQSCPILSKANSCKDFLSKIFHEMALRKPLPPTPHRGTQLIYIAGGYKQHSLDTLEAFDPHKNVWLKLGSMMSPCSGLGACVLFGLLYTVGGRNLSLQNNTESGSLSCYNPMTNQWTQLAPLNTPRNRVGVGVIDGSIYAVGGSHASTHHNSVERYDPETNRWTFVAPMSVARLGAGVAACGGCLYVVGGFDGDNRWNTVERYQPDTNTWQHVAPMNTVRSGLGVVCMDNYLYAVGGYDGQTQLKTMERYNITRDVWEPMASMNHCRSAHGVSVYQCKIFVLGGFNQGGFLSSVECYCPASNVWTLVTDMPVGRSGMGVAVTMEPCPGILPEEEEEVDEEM

[5] = biological target: T4, hKeap1 (Homo sapiens, UniProt Q14145, C273I); assay: as above; assay type: cell-based; conditions: covalent; alkyne-labelled compound released from Ht-PreHNE bound to HaloTag (25 uM in methods), live cells
T4 construct: gene KEAP1; full-length, His6-HaloTag-TEV fusion (2xHA C-terminal in fish); TEV-cleaved after lysis, about 70 kDa; expressed in HEK293T cells or zebrafish embryos
T4 sequence (Q14145 whole entry C273I, the tested form may be a part): as the sequence (Q14145 whole entry, the tested form may be a part) above, with C273I counted along it

[6] = biological target: T2, zKeap1b; assay: as above; assay type: cell-based; conditions: covalent; alkyne-labelled compound released from Ht-PreNE bound to HaloTag (10 uM in legend, 25 uM in methods), live cells
[7] = biological target: T4, hKeap1; assay: as above; assay type: cell-based; conditions: covalent; alkyne-labelled compound released from Ht-PreNE bound to HaloTag (10 uM in legend, 25 uM in methods), live cells
[8] = biological target: T3, zKeap1a; assay: as above; assay type: cell-based; conditions: covalent; alkyne-labelled compound released from Ht-PreNE bound to HaloTag (10 uM in legend, 25 uM in methods), live cells
[9] = biological target: T1, hKeap1; assay: as above; assay type: cell-based; conditions: covalent; alkyne-labelled compound released from Ht-PreNE bound to HaloTag (10 uM in legend, 25 uM in methods), live cells

C#CCCCC/C=C/C(C)=O [DE]
Z-REX in zebrafish embryos, biotin-azide Click, streptavidin pulldown, western b [1]: using DE as an example that hKeap1-labeling extent was similar to that achieved with HNE

C#CCCCC(O)/C=C/C=O (stereo not drawn) [HNE]
T-REX photouncaging in HEK293T, TEV cleavage, Cy5-azide Click in-gel fluorescenc [2]: all four proteins sensed HNE equally well
T-REX photouncaging in HEK293T, TEV cleavage, Cy5-azide Click in-gel fluorescenc [3]: all four proteins sensed HNE equally well
T-REX photouncaging in HEK293T, TEV cleavage, Cy5-azide Click in-gel fluorescenc [4]: all four proteins sensed HNE equally well
T-REX photouncaging in HEK293T, TEV cleavage, Cy5-azide Click in-gel fluorescenc [5]: all four proteins sensed HNE equally well

C#CCCCC/C=C/C=O [NE]
targeting efficiency [6]: zKeap1a/b, both of which sensed NE to the same extent
targeting efficiency [7]: hKeap1 and hKeap1(C273I) sensed NE marginally better than zKeap1a/b
targeting efficiency [8]: zKeap1a/b, both of which sensed NE to the same extent
targeting efficiency [9]: hKeap1 and hKeap1(C273I) sensed NE marginally better than zKeap1a/b
